According to US9393324B2, “Use of 31P NMR spectroscopy of whole heart energetics for detection of drug-induced cardiotoxicity” (Battelle Memorial Institute, priority 2012, dated 2016):
“Also recorded” adds a separate entry of the source. Read-outs that look alike come from different tables or passages of the source.

Experiments:
isolated rat heart [1] = system: isolated rat heart
Protocol: In combination with the functional assessment, whole heart energetics can be determined, measured as the changes in peak levels of ATP, phosphocreatine, and inorganic phosphate using NMR spectroscopy.
(§1) A heart, in this case isolated from rat and perfused using the Langendorff method, is image guided by 1 H magnetic resonance imaging and magnetic resonance spectroscopy is performed for ^31P found in the high energy phosphogens ATP, phosphocreatine (PCr), and inorganic phosphate (Pi) in an upright 11.7 Tesla NMR at 161.99 MHz (FIGS. 1 and 2).
(§2) The energetic spectra from the whole heart was averaged every 4 minutes before and after drug exposure. PCr, ATP alpha, beta, and gamma, and Pi peak height and area, and pH calculated from the resonance shift in Pi (pHi=pK+log [(go−gB)/gA−go)] […] Heart contractility (left ventricular pressure) and heart rate is simultaneously acquired on an Emka IOX data acquisition system.
^31P spectra is acquired for 20 minutes prior to drug application. The drug of interest is then applied for 1 hour followed by a 20 minute stress test using 0.1 um isoproteranol (a beta agonist) in the presence of the drug which causes increased contractility, relaxation, heart rate, and increased conduction velocity. This step is done to test the energy reserve of the heart after drug application.

isolated rat heart [2] = system: isolated rat heart; remark: listed apart in the source
Description: Applying this approach, a perfused isolated heart may be inserted into an 11.5 tesla NMR magnet for spectroscopic analysis of high-energy phosphagens (ATP, phosphocreatine, and inorganic phosphate) in combination with collection of heart effluent and tissue, and functional assessment of contractility can be determined as measured by dP/dtmax and dP/dtmin, left ventricular developed pressure, heart rate, etc.
as §1, §2
^31P spectra is acquired for 20 minutes prior to drug application. The drug of interest is then applied for 1 hour followed by a 20 minute stress test using 0.1 um isoproteranol (a beta agonist) in the presence of the drug which causes increased contractility, relaxation, heart rate, and increased conduction velocity. This step is done to test the energy reserve of the heart after drug application. […] As a positive control, we use FCCP, a mitochondrial uncoupler that inhibits mitochondrial oxidative phosphorylation by disrupting the mitochondrial protein gradient.

[3] = drug applied for 1 hour, before stress test
[4] = during 20 minute stress test, 0.1 um isoproteranol in the presence of the drug

Molecule	ATP (isolated rat heart [1]; doxorubicin 1 and 10 uM)	PCr (isolated rat heart [1]; doxorubicin 1 and 10 uM)	Pi (inorganic phosphate) (isolated rat heart [1]; doxorubicin 1 and 10 uM)	effects on contractility and energetic parameters in the stress test period (isolated rat heart [1]; doxorubicin 1 and 10 uM, isoproteranol stress test period)	phosphocreatine (isolated rat heart [1]; stress test with isoproteranol, versus control hearts)	contractility (isolated rat heart [2]; doxorubicin 1 and 10 uM)	ATPγ peak (isolated rat heart [1]; [3])	PCr peak (isolated rat heart [1]; [3])	Pi peak (isolated rat heart [1]; [3])	ATPγ peak (isolated rat heart [1]; [4])	PCr peak (isolated rat heart [1]; [4])	Pi peak (isolated rat heart [1]; [4])	contractility (dP/dtmax) (isolated rat heart [2]; [3])	contractility (isolated rat heart [2]; [4])
COc1cccc2c1C(=O)c1c(O)c3c(c(O)c1C2=O)C[C@@](O)(C(=O)CO)C[C@@H]3O[C@H]1C[C@H](N)[C@H](O)[C@H](C)O1 [doxorubicin]	decreases	decreases	decreases	pronounced	pronounced drop	increases; also recorded: increasing								
carbony cyanide 4-(trifluoromethoxy) phenylhydrazone [FCCP]							declines	declines	did not affect	declined further	dropped slightly	no effect	declines	increased slightly
